Test results from patent publication US6958358B2, “Inhibitors of cruzipain and other cysteine proteases” (Amura Therapeutics Limited, priority 2001, dated 2005).

Columns and labels:
Human Cathepsin K = biological target: T1, Human Cathepsin K (Homo sapiens, UniProt P43235); assay: Cathepsin peptidase activity assay, human cathepsin K; type: biochemical; conditions: pH 5.5; Z-Leu-Arg-AMC; 25±1° C.
T1 construct: Dr. Boris Turk (Josef Stefan Institute, Ljubljana, Slovenia), obtained from an academic laboratory, not a commercial vendor
T1 sequence (P43235 115-329): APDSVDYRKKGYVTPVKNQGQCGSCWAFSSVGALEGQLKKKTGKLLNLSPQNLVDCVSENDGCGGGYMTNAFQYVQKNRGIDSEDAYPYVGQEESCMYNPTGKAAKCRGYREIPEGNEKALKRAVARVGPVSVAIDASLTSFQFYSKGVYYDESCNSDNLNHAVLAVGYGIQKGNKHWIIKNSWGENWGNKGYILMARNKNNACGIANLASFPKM
Protocol: (§1) Assay protocols were based on literature precedent (Table1; Barrett, A. J., Rawlings, N. D. and Woessner, J. F., 1998, Handbook of Proteolytic Enzymes, Academic Press, London and references therein) and modified as required to suit local assay protocols. Enzyme was added as required to initiate the reaction and the activity, as judged by the change in fluorescence upon conversion of substrate to product, was monitored over time. All assays were carried out at 25±1° C.
(§2) Bovine cathepsin S, human cathepsin L, human cathepsin H and human cathepsin B were obtained from CN Biosciences. Recombinant human cathepsin S, human cathepsin K and human cathepsin X were obtained from Dr. Boris Turk (Josef Stefan Institute, Ljubljana, Slovenia). Unless otherwise stated, all peptidase activity assays were carried out in 10 mM bis-tris-propane (BTP), pH 6.5 containing 1 mM […], 5 mM 2-mercaptoethanol and 1 mM CaCl2. Human cathepsin H activity assays were carried out in 10 mM BTP pH 6.5, 142 mM […], 1 mM CaCl2, 1 mM EDTA, 1 mM DTT, 0.035 mM Zwittergent 3-16. […] The rate of conversion of substrate to product was derived from the slope of the increase in fluorescence monitored continuously over time.
(§3) The apparent inhibition constant (Ki) for each compound was determined on the basis that inhibition was reversible and occurred by a pure-competitive mechanism. The Ki values were calculated, from the dependence of enzyme activity as a function of inhibitor concentration, by direct regression analysis (Prism v 3.02) using Equation 2 (Cornish-Bowden, A., 1995.). […]
(§4) In situations where the apparent dissociation constant (Ki^app) approached the enzyme concentrations, the Ki^app values were calculated using a quadratic solution in the form described by Equation 3 (Morrison, J. F. Trends Biochem. Sci., 7, 102-105, 1982; Morrison, J. F. Biochim. Biophys. Acta, 185, 269-286, 1969; Stone, S. R. and Hofsteenge, J. Biochemistry, 25, 4622-4628, 1986). […]

Bovine Cathepsin S = biological target: T2, Bovine Cathepsin S (Bos taurus, UniProt P25326); assay: Cathepsin peptidase activity assay, bovine cathepsin S; type: biochemical; conditions: pH 6.5; boc-Val-Leu-Lys-AMC; 25±1° C.
T2 construct: purchased CN Biosciences
Protocol: as §1, §2, §3, §4

Cruzipain = biological target: T3, Cruzipain (Trypanosoma cruzi, UniProt P25779); assay: Trypanosoma cruzi cruzipain peptidase activity assay; type: biochemical; conditions: wild-type cruzipain from T. cruzi Dm28 epimastigotes; pH 6.75; 25±1° C.
T3 construct: Wild-type cruzipain, derived from Trypanosoma cruzi Dm28 epimastigotes; tissue Dr. Julio Scharfstein (Instituto de Biofisica Carlos Chagas Filho, Universidade Federal do Rio de Janeiro); host or cells: Trypanosoma cruzi Dm28 epimastigotes
Protocol: as §1
Wild-type cruzipain, derived from Trypanosoma cruzi Dm28 epimastigotes, was obtained from Dr. Julio Scharfstein (Instituto de Biofisica Carlos Chagas Filho, Universidade Federal do Rio de Janeiro, Rio de Janeiro, Brazil). Activity assays were carried out in 100 mM sodium phosphate, pH 6.75 containing 1 mM EDTA and 10 mM L-cysteine using […] enzyme. Ac-Phe-Arg-AMC (KM^app≈12 μM) and D-Val-Leu-Lys-AMC (KM^app≈4 μM) were used as the substrates. Routinely, Ac-FR-AMC was used at a concentration equivalent to KM^app and D-Val-Leu-Lys-AMC was used at a concentration of 25 μM. The rate of conversion of substrate to product was derived from the slope of the increase in fluorescence monitored continuously over time.
as §3, with “1995.). [formula]” for “1995.).”
as §4

Human Cathepsin L = biological target: T4, Human Cathepsin L (Homo sapiens, UniProt P07711); assay: Cathepsin peptidase activity assay, human cathepsin L; type: biochemical; conditions: pH 6.5; Ac-Phe-Arg-AMC; 25±1° C.
T4 construct: purchased CN Biosciences
Protocol: as §1, §2, §3, §4

Trypanosoma cruzi = conditions: added to Trypanosoma cruzi-infected mammalian cell cultures; cited from earlier work
[1] = test system: Trypanosoma cruzi infection; conditions: cited from earlier work

T2 sequence (P25326 115-331): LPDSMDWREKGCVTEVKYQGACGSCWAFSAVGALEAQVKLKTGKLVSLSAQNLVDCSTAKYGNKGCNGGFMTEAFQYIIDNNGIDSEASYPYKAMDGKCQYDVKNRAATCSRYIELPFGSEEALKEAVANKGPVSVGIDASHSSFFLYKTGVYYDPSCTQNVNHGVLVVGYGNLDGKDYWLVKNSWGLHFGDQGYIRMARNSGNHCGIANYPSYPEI
T4 sequence (P07711 114-333): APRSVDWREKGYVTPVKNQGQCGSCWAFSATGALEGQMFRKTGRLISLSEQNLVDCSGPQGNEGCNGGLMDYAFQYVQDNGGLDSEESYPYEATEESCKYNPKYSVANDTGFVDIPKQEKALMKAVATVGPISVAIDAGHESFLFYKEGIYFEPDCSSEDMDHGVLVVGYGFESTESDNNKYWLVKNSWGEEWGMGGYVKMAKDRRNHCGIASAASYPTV
T3 sequence (P25779 123-467): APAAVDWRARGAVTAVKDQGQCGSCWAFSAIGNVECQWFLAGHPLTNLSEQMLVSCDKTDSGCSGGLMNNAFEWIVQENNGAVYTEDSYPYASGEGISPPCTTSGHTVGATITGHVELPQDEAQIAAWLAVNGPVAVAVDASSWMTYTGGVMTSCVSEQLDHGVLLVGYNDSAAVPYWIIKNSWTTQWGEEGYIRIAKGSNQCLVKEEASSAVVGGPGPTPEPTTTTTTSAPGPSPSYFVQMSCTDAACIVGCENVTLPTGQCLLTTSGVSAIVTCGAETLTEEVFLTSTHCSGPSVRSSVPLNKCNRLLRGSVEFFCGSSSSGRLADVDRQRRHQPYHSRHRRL

| Compound | Ki (Human Cathepsin K) [µM] | Ki (Bovine Cathepsin S) [µM] | Ki (Cruzipain) [µM] | Ki (Human Cathepsin L) [µM] | effect on replication and differentiation of the parasite (Trypanosoma cruzi) | cure during the acute phase of infection [1] [%] |
| --- | --- | --- | --- | --- | --- | --- |
| CC(C)(C)c1ccc(C(=O)N[C@@H](Cc2ccc(O)cc2)C(=O)N[C@]23CCC[C@H]2OCC3=O)cc1 [Example 1, (3aR, 6aR) 4-tert-Butyl-N-[2-(4-hydroxyphenyl)-1S-(3-oxo-hexahydrocyclopenta[b]furan-3a-ylcarbamoyl)-ethyl]benzamide] | > 100 | > 50 | < 2 | > 20 | – | – |
| CC(C)C[C@H](NC(=O)c1cc2ccccc2s1)C(=O)N[C@]12CCC[C@H]1OCC2=O [Example 6, (3aR, 6aR) Benzo[b]thiophene-2-carboxylic acid [3-methyl-1S-(3-oxo-hexahydrocyclopenta[b]furan-3a-ylcarbamoyl)butyl]amide] | < 2 | > 25 | > 20 | > 10 | – | – |
| O=C(N[C@@H](CC1CCCCC1)C(=O)N[C@]12CCC[C@H]1OCC2=O)c1ccsc1 [Example 7, (3aR, 6aR) Thiophene-3-carboxylic acid [2-cyclohexyl-1S-(3-oxo-hexahydrocyclopenta[b]furan-3a-ylcarbamoyl)ethyl]amide] | > 50 | < 2 | > 50 | > 25 | – | – |
| CC(NC(=O)C(Cc1ccccc1)NC(=O)OCc1ccccc1)C(=O)CF (stereo not drawn) [Z-Phe-Ala-FMK] | – | – | – | – | blocked replication and differentiation of the parasite | – |
| O=C(Cn1ccnc1[N+](=O)[O-])NCc1ccccc1 [benznidazole] | – | – | – | – | – | ~60 |
